Common to all, as to assay: DTP human tumour cell line panel, 48 h
Experiment [1] deals with DU-145 prostate.
In experiment [2] the test system is SNB-19 CNS.
For experiment [3], the system named is NCI-H460 lung.
Experiment [4] relates to NCI-H522 lung.
In experiment [5] the test system is LOX IMVI melanoma.
In experiment [6] the test system is OVCAR-3 ovarian.
Experiment [7] deals with UACC-62 melanoma.
The test system of experiment [8] is OVCAR-4 ovarian.
Experiment [9] has as its system MDA-MB-231 breast.
For experiment [10], the system named is HOP-62 NSCLC.

Several values for one entry are separate records, joined by “and”; a condition that tells them apart may be missing. Equal values may be shown once.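 Where inhibition never reached the appropriate level, the endpoint shown equals the highest concentration tested. Otherwise, values were interpolated linearly from a five-concentration, 48-hour dose response in 96-well plates. GI50: concentration for 50% inhibition of growth. Definition used: TGI = concentration required for complete inhibition of growth.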

Turning to `N=C(N)c1nn(C2OC(CO)C(O)C2O)c2nc[nH]c(=O)c12` (configuration not stated), the GI50 in experiment [1] was 196 nM; in experiment [2] it was 2340 nM; in experiment [3], 487 nM; in experiment [4] it was 239 nM; in experiment [5], 337 nM; in experiment [6], 836 nM. In addition, the GI50 was 431 nM in [7], 647 nM in experiment [8], 248 nM in [9] and 300 nM in experiment [10]. Further, the TGI in experiment [1] stood at 780 nM; in experiment [2], 8710 nM; in [3], 9090 nM; in experiment [4], 690 nM; in experiment [5], 1840 nM; in experiment [6] it was 2900 nM. In addition, the TGI in [7] is 1630 nM; in experiment [8], 7840 nM; in [9] it was 778 nM; in [10], 1140 nM.

As for `c1ccc2[nH]c(-c3ccc(N4CCN(c5ccc(-c6nc7ccccc7[nH]6)cc5)CC4)cc3)nc2c1`, the GI50 in experiment [1] was 37500 nM; in [2], 10500 nM; in experiment [3], more than 100000 nM; in experiment [4], more than 100000 nM; in experiment [5], more than 100000 nM; in [6] it was more than 100000 nM. Besides, the GI50 in experiment [7] was 83000 nM; in experiment [8], more than 100000 nM; in experiment [9], more than 100000 nM; in experiment [10], 11400 nM. In addition, the TGI in experiment [1], in [2], in [3], in experiment [4], in experiment [5] and in experiment [6] was more than 100000 nM each time. For the same compound, the TGI in [7] is more than 100000 nM; in experiment [8], more than 100000 nM; in experiment [9], more than 100000 nM; in experiment [10], 75700 nM.

For `O=C(CCl)c1ccc([N+](=O)[O-])o1`, the GI50 in experiment [1] is 2210 nM; in [2], 10600 nM; in experiment [3] it was 10300 nM; in experiment [4] it was 2810 nM; in [5] it was 1470 nM; in [6] it was 1250 nM. The GI50 is 2130 nM in [7], 1730 nM in experiment [8], 4900 nM in experiment [9] and 7580 nM in [10]. The TGI was 5010 nM in [1]; 23400 nM in [2]; 28100 nM in experiment [3]; more than 21100 nM in experiment [4]; 3190 nM in experiment [5]; 2580 nM in [6]. Besides, the TGI is 5620 nM in experiment [7], 3320 nM in experiment [8], 13700 nM in [9] and 17600 nM in experiment [10].

As for `CC[C@](C)(O)C(=O)O[C@H]1C(=O)O[C@@H]2C[C@H]3C(C)=CC(=O)[C@@H](O)[C@]3(C)[C@H]3[C@@]4(O)OC[C@]32[C@@H]1[C@@H](C)[C@H]4O`, the TGI in experiment [1] was 2900 nM; in [2], 674 nM and 223 nM; in experiment [3], 1120 nM and 327 nM; in experiment [4] it was 148 nM; in experiment [5], 278 nM and 545 nM; in [6], 502 nM and 1620 nM. The TGI was 705 nM and 178 nM in experiment [7]; 1260 nM and 923 nM in [8]; 4340 nM in experiment [9]; 1190 nM and 368 nM in experiment [10]. Further, the GI50 is 184 nM in experiment [3]; 29.6 nM in experiment [4]; 56.3 nM in experiment [5]; 387 nM in experiment [6]; 149 nM in [7]; 112 nM in [8]. Also, the GI50 in experiment [10] is 165 nM.

Regarding `CC12CCC(=O)C=C1CCC1C2CCC2(C)C(C(=O)Cn3cnc4c(=S)nc[nH]c43)CCC12` (configuration not stated), the TGI in experiment [1] was 66400 nM; in experiment [2], 73800 nM; in experiment [3] it was more than 100000 nM; in experiment [4], more than 100000 nM; in experiment [5], more than 100000 nM; in [6] it was 49600 nM. Further, the TGI in [7] is more than 100000 nM; in [8] it was 55000 nM; in [9], more than 100000 nM; in [10] it was 47100 nM.

In the case of `CC[C@H](Nc1nc(N)nc(C)c1C#N)c1nc2cccc(CN(C)c3ncc(C(=O)NO)cn3)c2c(=O)n1-c1ccccc1`, the GI50 in experiment [1] is 1110 nM; in experiment [2], 827 nM; in experiment [3], 1150 nM; in experiment [4], 174 nM; in [5], 693 nM; in experiment [6], 761 nM. Further, the GI50 in experiment [7] is 199 nM; in [8] it was 1010 nM; in experiment [9] it was 779 nM; in experiment [10], 804 nM. In addition, the TGI was more than 16700 nM in [1]; 6400 nM in experiment [2]; 11200 nM in experiment [3]; 4270 nM in experiment [4]; 1350 nM in [5]; 2280 nM in experiment [6]. Further, the TGI in experiment [7] is 897 nM; in experiment [8], 6560 nM; in experiment [9], 3080 nM; in [10] it was 4420 nM.

The values above are taken from PubChem BioAssay (NCI).
